Entries after “also recorded” stand apart in the source; their conditions may differ.
Columns and labels:
[1] = Antioxidant ability: neutralizing reactive species, lipid peroxidation; assay type: biochemical
[2] = Animal models of ischemia-reperfusion injury, neurodegenerative diseases and metabolic syndrome; assay type: in vivo; details: neurodegenerative diseases, metabolic syndrome
[3] = target: heme environment of cytochrome c (with CL) (Homo sapiens, UniProt P99999); assay: Soret CD spectrum of cyt C in the presence of CL; assay type: binding; details: cyt C 10 μM; CL 30 μg/ml; peptide 10 μM; 20 mM HEPES pH 7.5, 25° C.; FIG. 24
Chain of heme environment of cytochrome c (with CL) (P99999 2-105 limits assumed, species assumed): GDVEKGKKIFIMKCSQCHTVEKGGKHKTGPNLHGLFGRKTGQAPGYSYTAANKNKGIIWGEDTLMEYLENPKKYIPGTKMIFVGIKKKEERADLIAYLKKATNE
Procedure: Circular dichroism (CD) was carried out to examine the effects of the peptides on protecting the heme environment of cyt C from the acyl chain of CL. For heme proteins, the Soret CD spectrum is strictly correlated with the heme pocket conformation. In particular, the negative 416-420 nm Cotton effect is considered diagnostic of Fe(III)-Met80 coordination in native cyt C (Santucci and Ascoli, 1997). […] CD spectra were obtained using AVIV CD Spectrometer Model 410.
Changes in the Soret CD spectrum of cyt C (10 μM) were recorded in the absence (dotted line) and presence (dashed line) of 30 μg/ml CL, plus addition of different peptides (10 μM) (solid line) (FIG. 24). CD measurements were carried out using 20 mM HEPES, pH 7.5, at 25° C. and expressed as molar ellipticity (θ) (m Deg).

[4] = system: cytochrome c; assay: Fluorescence quenching of peptide by cytochrome c; assay type: binding
Procedure: (§1) Maximal fluorescence emission of SS-19 was monitored at 420 nm following excitation at 320 nm using Hitachi F-4500 fluorescence spectrophotometer.
(§2) The quenching by cytochrome c was not displaced by sequential additions of bovine serum albumin (FIG. 22C, A+arrows) (500 μg/ml).
Fluorescence emission of SS-19 (10 μM) was monitored in real time (Ex/Em=320 nm/420 nm) using Hitachi F-4500 fluorescence spectrophotometer.

[5] = system: isolated rat renal kidney mitochondria; assay: Fluorescence quenching of peptide by mitochondria or mitoplasts; assay type: binding
Procedure: as §1, §2

[6] = Fluorescence spectroscopy of peptide interaction with cardiolipin; assay type: binding; details: peptide 1 μM, CL 5-50 μg/ml
Source text: The peptides Dmt-D-Arg-(atn)Dap-Lys-NH2 (SS-19) and Dmt-D-Arg-Phe-Lys-Ald-NH2 (SS-37)cationic peptides carry net positive charge at neutral pH. They are expected to associate with anionic phospholipid cardiolipin based on electrostatic interaction. The interaction of small peptides with lipid membranes can been studied using fluorescence spectroscopy (Surewicz and Epand, 1984). […] Polarity-sensitive fluorescent probes were incorporated into the peptides and fluorescence spectroscopy was used to determine if SS-19, SS-37 and SS-36 interact with CL.
The peptide Dmt-D-Arg-Phe-(atn)Dap-NH2 (SS-19) contains anthraniloyl incorporated into diaminopropionic acid. Anthraniloyl derivatives fluoresce in the 410-420 nm range when excited at 320-330 nm (Hiratsuka T, 1983). The quantum yield of anthraniloyl derivatives is strongly dependent on the local environment, and can increase 5-fold going from water to 80% ethanol, together with a blue shift in the emission maxima (λ max) of <10 nm (Hiratsuka T, 1983). Fluorescence emission spectrum of SS-19 (1 μM) alone, and in the presence of increasing concentrations of CL (5 to 50 μg/ml), was monitored following excitation at 320 nm using Hitachi F-4500 fluorescence spectrophotometer.
The peptide Dmt-D-Arg-Phe-Lys-Ald-NH2 (SS-37) contains an additional amino acid, aladan (Ald), which has been reported to be particularly sensitive to the polarity of its environment and it has been used to probe the electrostatic character of proteins (Cohen et al., 2002). When excited at 350 nm, λmax shifts from 542 nm in water to 409 nm in heptane, accompanied by a significant increase in quantal yield (Cohen et al., 2001). Fluorescence emission spectrum of SS-37 (1 μM) alone, and in the presence of increasing concentrations of CL, was monitored following excitation at 350 nm. Addition of CL (5 to 50 μg/ml) led to a 3-fold increase in quantal yield of SS-37 as well as a clear blue shift in λmax, from 525 nm without CL to 500 nm with 50 μg/ml CL (FIG. 21B).
The peptide Dmt-D-Arg-Ald-Lys-NH2 (SS-36) contains Ald in place Phe^3. Fluorescence emission spectrum of SS-36 (1 μM) alone, and in the presence of increasing concentrations of CL, was monitored following excitation at 350 nm. SS-36 was the most sensitive to the addition of CL, with dramatic increase in quantal yield and blue shift observed with much lower added amounts of CL (1.25 to 5 μg/ml). The λmax shifted from 525 nm without CL to 500 nm with as little as 1.25 μg/ml CL, and quantal yield increased by more than 100-fold with the addition of 5 μg/ml of CL (FIG. 21C).

[7] = target: T1, cytochrome c-CL complex (Homo sapiens, UniProt P99999); assay: Fluorescence spectroscopy of peptide with cytochrome c in the presence of CL; assay type: binding; details: peptide 10 μM, CL 50 μg/ml
T1 sequence (P99999 2-105 limits assumed, species assumed, one chain of several): as the sequence (P99999 2-105 limits assumed, species assumed) above
Procedure: Fluorescence emission of SS-19 (10 μM) was monitored in real time (Ex/Em=320 nm/420 nm) using Hitachi F-4500 fluorescence spectrophotometer. […] CL may potentiate the interaction between SS-19 and cytochrome c by serving as an anionic platform for the two cationic molecules.
The quenching by cytochrome c was not displaced by sequential additions of bovine serum albumin (500 μg/ml) (FIG. 23C, A+arrows).
SS-36 also contains the polarity-sensitive fluorescent amino acid aladan.

[8] = target: T1, cytochrome c-CL complex; assay: Cytochrome c/CL peroxidase activity (amplex red); assay type: biochemical; details: figure legend FIG. 29A-C; comparison at a fixed concentration of 10 μM (FIG. 29C)
Source text: The six coordination of the heme in cytochrome c prevents direct interaction of H2O2 with the catalytic metal site, and native cytochrome c in solution is a poor peroxidase. Upon interaction with CL, cytochrome c undergoes a structural change with rupture of the Fe-Met80 coordination. […] The mechanism of action of cytochrome c peroxidase is similar to that of other peroxidases, such as horse radish peroxidase (HRP). Thus it is possible to use the amplex red-HRP reaction to investigate cytochrome c peroxidase activity. In the presence of peroxidase, amplex red (AR) reacts with H2O2 to form the red-fluorescent oxidation product, resorufin (Ex/Em=571/585).
Cytochrome c (2 μM) was mixed with CL (25 μg/ml) and 10 μM H2O2 in 20 mM HEPES, pH 7.4. Amplex red (50 μM) was then added and fluorescence emission monitored in real time using Hitachi F4500 fluorescence spectrophotometer. Addition of amplex red elicited rapid increase in fluorescence signal due to resorufin formation, providing direct evidence for peroxidase activity of cytochrome c/CL complex (FIG. 29A).

Substance | lipid peroxidation [1] | neutralizing reactive species [1] | efficacy in animal models [2] | disappearance of the negative Cotton effect caused by CL (heme environment of cytochrome c) [3] | displacement of cytochrome c quenching by bovine serum albumin ([4]; BSA 500 μg/ml, FIG. 22C) | dependence of interaction on amount of cytochrome c ([4]; FIG. 22D) | peptide fluorescence on addition of cytochrome c ([4]; peptide 10 μM, 2 μM cytochrome c, no CL) | quenching of peptide fluorescence by cytochrome c-depleted mitoplasts ([5]; mitoplasts 0.4 mg, FIG. 22B) | peptide fluorescence on addition of mitochondria ([5]; peptide 10 μM, sequential addition of 0.2 mg mitochondria, FIG. 22A) | increase in quantal yield of peptide fluorescence [6] | shift in λmax on addition of CL ([6]; excitation 320 nm) | peptide fluorescence on addition of cytochrome c in the presence of CL ([7]; 2 μM cytochrome c) | peptide fluorescence on addition of CL ([7]; FIG. 23B) | peroxidase activity in cytochrome c/CL complex [8]
D-Arg-2′6′-Dmt-Tyr-Lys-Phe-NH2 | inhibit lipid peroxidation | can neutralize H2O2, hydroxyl radical, and peroxynitrite | remarkable efficacy |  |  |  |  |  |  |  |  |  |  | 
Dmt-D-Arg-Phe-(atn)Dap-NH2 [SS-19] |  |  |  | Protect the Heme Environment of Cytochrome C from the Acyl Chain of CL | not displaced | linearly dependent on the amount of cytochrome c added | similarly quenched; also recorded: immediate quenching of the fluorescence signal | significantly reduced | quenched | 2 fold | no significant shift in λmax | larger extent of quenching of SS-19 fluorescence | increase in SS-19 fluorescence | preventing peroxidase activity in cytochrome c/CL complex
